Measured values as given in PubChem BioAssay AID1259411 (Chemical Carcinogenesis Research Information System (CCRIS), 2018).
Activity calls are given as the source filed them. The rule behind the calls is not given here.

Test system: rodent carcinogenicity bioassays, tumor incidence
Assay: CCRIS carcinogenicity studies
Procedure, shortened: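 NCI-built, expert-reviewed records of carcinogenicity and related test outcomes (mutagenicity, tumor promotion/inhibition) compiled from published and report sources, historical span 1985-2011, not updated.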

Measured: carcinogen call

c1ccc2c3c(ccc2c1)-c1cccc2cccc-3c12
active: Species: MOUSE, Route: DERMAL, Tumor Site: Type of Lesion: INTEGUMENTARY SYSTEM (SKIN) active; positive | Species: MOUSE, Strain/Sex: CD-1/FEMALE, Route: INTRAPERITONEAL, Dose: 0, 0.11, 0.275, 1.1 UMOL (TOTAL DOSE) ADMINISTERED OVER DAYS 1, 8, AND 15 OF LIFE (STUDY DURATION: 52 WEEKS), Dose: 0, 0.11, 0.275, 1.1 UMOL (TOTAL DOSE) ADMINISTERED OVER DAYS 1, 8, AND 15 OF LIFE (STUDY DURATION: 52 WEEKS), Tumor Site: Type of Lesion: LUNG: ALVEOLAR/BRONCHIOLAR CARCINOMA active; positive | Species: MOUSE, Strain/Sex: CD-1/MALE, Route: INTRAPERITONEAL, Dose: 0, 0.11, 0.275, 1.1 UMOL (TOTAL DOSE) ADMINISTERED OVER DAYS 1, 8, AND 15 OF LIFE (STUDY DURATION: 52 WEEKS), Dose: 0, 0.11, 0.275, 1.1 UMOL (TOTAL DOSE) ADMINISTERED OVER DAYS 1, 8, AND 15 OF LIFE (STUDY DURATION: 52 WEEKS), Tumor Site: Type of Lesion: LUNG: ALVEOLAR/BRONCHIOLAR CARCINOMA, LIVER: ADENOMA OR CARCINOMA active; positive | Species: RAT, Strain/Sex: OSBORNE-MENDEL/FEMALE, Route: LUNG IMPLANT, Dose: 0, 0.2, 1.0, 5.0 MG IN BEESWAX/TRIOCTANOIN (STUDY DURATION: LIFETIME), Dose: 0, 0.2, 1.0, 5.0 MG IN BEESWAX/TRIOCTANOIN (STUDY DURATION: LIFETIME), Tumor Site: Type of Lesion: LUNG: EPIDERMOID CARCINOMA active; positive
